Assay type in all cases: in vivo, mice
Data set [1] has as its system endometriotic lesions (experimental endometriosis). In words: Lesion size, weight and histology at end of intervention. The conditions noted are these: for lesion size compared to control group / lesion weight compared to control group / development and histology of the endometriotic lesions: after 4 weeks i.p. once per day; for lesion size compared to control group / lesion weight compared to control group: EGCG, pro-EGCG 50 mg/kg, vitamin E 20 mg/kg; for development and histology of the endometriotic lesions: microscopic examination. The source says: In this study, endometrial tissues from eight-week-old female CMV-Luc mice (n=15) were acquired for transplantation into nonluminescent NOD-SCID mice (n=32). The mouse endometrium was obtained during the proliferating estrous stage, and biopsies 2 mm in diameter were obtained with a sterile dermal biopsy punch (Miltex, NY). The biopsies were immediately washed in prewarmed, phenol-red-free DMEM/F-12 medium (Sigma) to remove residual blood and mucus, and the samples were maintained in serum-free DMEM/F-12 medium before transplantation (Bruner-Tran K L, et al. J Clin Endocrinol Metab 2009; 94:2489-94). Cultured endometrial biopsies were randomly allocated for transplantation.
Five mouse endometrial biopsies per treatment group were implanted into a single subcutaneous pocket created is the abdominal wall of the mice along the ventral midline immediately below the umbilicus. All of the surgical procedures were performed under general anesthesia with isoflurane (Baxter, IL), and the mice were monitored until they fully recovered.
At the end of intervention, size of the endometriotic lesions was determined as the longest length and perpendicular width according to a venire caliper and was calculated as 0.52×width^2×length in mm^3. The endometrial implants, together with subcutaneous and muscle layers, were removed from the abdomen wall for detailed histological examination and specific staining analysis.
(§1) Paraffin sections (n=4 per group) were prepared for standard hematoxylin and eosin (H&E) staining, angiogenesis immunostaining and TUNEL staining as previously described (Xu H, et al. Hum Reprod 2009; 24:608-18.). Immunohistochemistry staining of in situ angiogenesis was performed by the immunoperoxidase method using a MACH 3 HRP Polymer Kit (Biocare Medical, Concord), and counterstained using methyl green or blue solution.

The test system of data set [2] is microvessels in the endometriotic lesions. Briefly: Angiogenesis of endometriotic lesions by Cellvizio, microCT and CD31/αSMA immunostaining. The note with it: after 4 weeks; for functional capillary length, density and area in the lesions compared to saline group / total vessel area in the lesions compared to saline group / total vessel length in the lesions compared to saline group / lesion neovascularization: Cellvizio; for functional capillary length, density and area in the lesions compared to saline group / total vessel area in the lesions compared to saline group / total vessel length in the lesions compared to saline group: FITC-Dextran; for lesion neovascularization / vessel volume and density in the lesions compared to saline group: microCT; for lesion neovascularization: CD31 and αSMA staining; for CD31-positively and αSMA-negatively stained new microvessel numbers compared to saline group / CD31-positively and αSMA-positively stained old microvessel numbers compared to saline group: immunostaining; for vessel volume and density in the lesions compared to saline group: Microfil. The method, then: (§2) At the end of intervention, functional angiogenesis of the endometriotic lesions (n=8 per group) was monitored by measuring the flow of fluorescence dye in the new microvessels developed in the implants using a Cellvizio® LAB LSU-488 system with a ProFlex Microprobe S1500 (Mauna Kea Technologies, Paris) as previously described (Xu H, et al. Fertil Steril 2011; 96:1021-8.). A total of 10 mg/ml of FITC-Dextran was injected intravenously into each mouse prior to imaging. Total vessel length (μm) and area (μm^2) and functional capillary length (μm^−1) and area density were measured using Cellvizio® LAB Vessel Detection software, and averaged from 4 perpendicular regions of the lesions in replicates. At the same time, apoptotic cells in the lesions were captured by Cellvizio-LAB 488 with a ProFlex MiniO/100 microprobe using Cellvizio® LAB I/C Viewer software (Mauna Kea Technologies). A total of 10 μl of 10 μM YO-PRO®-1 iodide in DSMO was injected into the lesion area.
After live animal imaging, structural angiogenesis in the endometriotic lesions (n=4 per group) was further examined by detecting the Microfil in the new microvessels developed in the implants using a VivaCT 40 μCT system (Scanco Medical, Switzerland) as previously described (Sun M H, et al. J Orthop Res. 2012; 30:137-43.). The mice were sacrificed by cervical dislocation and where immediately perfused with 4% paraformaldehyde and Microfil MV-120 Blue. Three-dimensional microvessel architecture was constructed, and absolute and relative Microfil-filled microvessel volumes were determined using the built-in software.
as §1
Antibodies against mouse CD31 and alpha-smooth muscle actin (αSMA) (Abcam Inc., MA) were used to double fluorescence stain the microvessels developed in the endometriotic lesions, and CD34 (Abeam Inc.) was used to stain the microvessels in the ovaries and uterus. The samples without primary antibodies served as negative controls. The total number of positively stained new and old microvessels in the lesions was counted, respectively. The mean microvessel numbers and sizes were calculated from 5 separated sections from each animal within the treatment group and are presented as numbers per lesion and μm^2 per lesion, respectively.

Data set [3] concerns apoptotic cells in the endometriotic lesions. In words: Apoptosis in endometriotic lesions by Cellvizio YO-PRO-1 imaging and TUNEL staining. The note with it: after 4 weeks. As for the experimental part: as §2
The total number of apoptotic cells was counted and averaged from the 4 perpendicular regions of the lesions in replicates as described above. Both IVIS and Cellvizio imaging procedures were performed under general anesthesia with isoflurane (Baxter, Ill.), and the mice were observed until fully recovered.
TUNEL labeling for in situ apoptotic cells was performed using an ApopTag Peroxidase In Situ Apoptosis Detection Kit (Temecula, Calif.) according to the manufacturer's instructions. The total numbers of TUNEL-positive stained cells were counted. The mean numbers of apoptotic cells were calculated from 5 separated sections from each animal within the treatment group and are presented as numbers per lesion as above. […] Each section was evaluated by both examiners, who were blinded to the experimental groups and results.

A short description of data set [4]: Oxygen radical absorbance capacity (ORAC) in plasma and lesions. The conditions noted are these: for ORAC in endometriotic lesions compared between treatment groups / ORAC in endometriotic lesions compared to saline group: lesions after intervention; for ORAC in plasma compared between treatment groups / ORAC in plasma compared to saline group: plasma during intervention. The source says:
(§3) Pharmacokinetics of EGCG and pro-EGCG in the animals were studied by measuring the corresponding EGCG and pro-EGCG concentrations (EGCG in the EGCG group, pro-EGCG in the pro-EGCG group) in plasma during the intervention and also in lesions at the end of intervention. EGCG and pro-EGCG were quantified by analytical methods as previously described (Lam W H, et al. Bioorg Med Chem. 2004; 510:69-93; Chu K O, et al. J Chromat B 2004; 810:187-95; Chu K O, et al. Anal Chim Acta 2004; 510:69-76). Anti-oxidative and anti-angiogenesis capacities of the samples were also studied by measuring oxygen radical absorbance capacity (ORAC) using a modified phycoerythrin fluorescence decay assay as previously described (Wang C C, et al. Clin Chem 2004; 50:952-4), and vascular endothelial growth factor (VEGF) concentrations were measured using a commercial ELISA kit (Uscn Life Science Inc., TX) according to the manufacturer's manual. Blood samples (n=8 per group) were collected from the tail vein once per week, and plasma was prepared by immediate centrifugation. Implants without subcutaneous and muscle layers (n=4 per group) were removed from the abdominal wall, and the endometriotic lesions were frozen. All of the samples were kept in −80° C. prior to analysis.

Data set [5] relates to vascular endothelial growth factor (VEGF). Briefly: VEGF concentrations in plasma and lesions by ELISA.
Text: as §3
A general note: In an ELISA, binding on a coated surface is turned into a signal by an enzyme label.

Data set [6] deals with ovarian follicles, endometrial glands, ovarian and endometrial stroma microvessels. In words: Reproductive effects on eutopic endometrium and ovaries (H&E, CD34 immunostaining). The note with it: H&E staining after 4-week intervention. As for the experimental part: Reproductive effects of EGCG and pro-EGCG on the endometrium and ovaries of each animal were also examined. After the 4-week intervention, the uterine horns and ovaries (n=8 per group) were removed and fixed for histological examination and angiogenesis immunostaining as described above. Endometrial glands, ovarian follicles and vascularization in endometrial and ovarian stroma were assessed.

The mark [7] stands for this setting: after 4 weeks, 50 mg/kg i.p. once per day.

Entries after “also recorded” stand apart in the source; their conditions may differ.

Consider `CC(=O)Oc1cc(OC(C)=O)c2c(c1)O[C@H](c1cc(OC(C)=O)c(OC(C)=O)c(OC(C)=O)c1)[C@H](OC(=O)c1cc(OC(C)=O)c(OC(C)=O)c(OC(C)=O)c1)C2` [pro-EGCG, (−)-EGCG octaacetate], for which, in data set [1], the “lesion size compared to control group” value is on record as “significantly decreased”; the “lesion weight compared to control group” value is listed as “significantly decreased”; the “development and histology of the endometriotic lesions” value is “poorly developed; also recorded: degraded and almost detached from the peritoneal muscle layers”. In data set [1] (setting [7]), the “lesion size compared with EGCG-treated mice” value is “significantly smaller” and the “lesion weight compared with EGCG-treated mice” value is “lighter”. Also, in data set [2], the “functional capillary length, density and area in the lesions compared to saline group” value is on record as “significantly inhibited”; the “total vessel area in the lesions compared to saline group” value was “significantly inhibited”; the “total vessel length in the lesions compared to saline group” value was “significantly inhibited”; the lesion neovascularization result was “poorly developed”. In addition, in data set [2], the “CD31-positively and αSMA-negatively stained new microvessel numbers compared to saline group” value was “significantly inhibited”; the “CD31-positively and αSMA-positively stained old microvessel numbers compared to saline group” value is reported as “significantly inhibited”; the “vessel volume and density in the lesions compared to saline group” value is listed as “significantly inhibited”. The “all of the microvessel parameters compared with EGCG group” value in data set [2] (50 mg/kg i.p.) is “significantly lower than those in the EGCG group”. In data set [3], the “apoptotic cell numbers in the lesions compared with EGCG group” value is listed as “significantly higher than the number in the EGCG group” and the “total apoptotic cell numbers in the lesions compared to saline group” value is “significantly increased”. In addition, in data set [4], the “ORAC in endometriotic lesions compared between treatment groups” value is “significantly higher than in the EGCG and vitamin E groups”; the “ORAC in endometriotic lesions compared to saline group” value is “significantly increased”; the “ORAC in plasma compared between treatment groups” value is “significantly higher than in the EGCG and vitamin E groups”; the “ORAC in plasma compared to saline group” value was “significantly increased”. In data set [5] (lesions after intervention), the “VEGF concentrations in endometriotic lesions compared to saline group” value was “significantly decreased” and the “VEGF concentrations in endometriotic lesions compared with EGCG group” value is “significantly lower than those in the EGCG group”. Moreover, in data set [5] (plasma during intervention), the “VEGF concentrations in plasma compared to saline group” value was “significantly decreased” and the “VEGF concentrations in plasma compared with EGCG group” value was “significantly lower than those in the EGCG group”. Moreover, in data set [6], the “effects on ovarian follicles” value is on record as “not affected” and the “effects on uterine endometrial glands” value is reported as “not affected”.
In the case of `O=C(O[C@@H]1Cc2c(O)cc(O)cc2O[C@@H]1c1cc(O)c(O)c(O)c1)c1cc(O)c(O)c(O)c1` [EGCG, (−)-epigallocatechin-3-gallate], in data set [1], the “lesion size compared to control group” value is “significantly decreased”; the “lesion weight compared to control group” value is “significantly decreased”; the “development and histology of the endometriotic lesions” value is “poorly developed; also recorded: small and loosely attached to the adjacent tissues”. Besides, in data set [2], the “functional capillary length, density and area in the lesions compared to saline group” value is listed as “significantly inhibited”; the “total vessel area in the lesions compared to saline group” value is recorded as “significantly inhibited”; the “total vessel length in the lesions compared to saline group” value was “significantly inhibited”; the lesion neovascularization entry is listed as “poorly developed”. Also, in data set [2], the “CD31-positively and αSMA-negatively stained new microvessel numbers compared to saline group” value is “significantly inhibited”; the “CD31-positively and αSMA-positively stained old microvessel numbers compared to saline group” value is “significantly inhibited”; the “vessel volume and density in the lesions compared to saline group” value is given as “significantly inhibited”. The “total apoptotic cell numbers in the lesions compared to saline group” value in data set [3] is reported as “significantly increased”. In data set [4], the “ORAC in endometriotic lesions compared between treatment groups” value is on record as “not significantly different from the vitamin E group”, the “ORAC in endometriotic lesions compared to saline group” value is recorded as “significantly increased”, the “ORAC in plasma compared between treatment groups” value is given as “not significantly different from the vitamin E group” and the “ORAC in plasma compared to saline group” value is recorded as “significantly increased”. Besides, the “VEGF concentrations in endometriotic lesions compared to saline group” value in data set [5] (lesions after intervention) is on record as “significantly decreased”. Further, the “VEGF concentrations in plasma compared to saline group” value in data set [5] (plasma during intervention) was “significantly decreased”. Further, in data set [6], the “effects on ovarian follicles” value was “not affected” and the “effects on uterine endometrial glands” value is “not affected”.

Values taken from patent US10188629B2, “Prodrug of green tea epigallocatechin-3-gallate (pro-EGCG) for use in the treatment of endometriosis” (The Hong Kong Polytechnic University, priority 2012, dated 2019).
